According to ChEMBL document CHEMBL1156812, “Novel synthesis of the hexahydroimidazo[1,5b]isoquinoline scaffold: application to the synthesis of glucocorticoid receptor modulators” (J Med Chem, 2010):
pEC50, pIC50, pKi: −log10 of the molar value.

How the values were obtained:
Glucocorticoid receptor [1] = biological target: T1, Glucocorticoid receptor (Homo sapiens, UniProt P04150); test: Transrepression activity at glucocorticoid receptor expressed in human A549 cells assessed as inhibition of IL-1-beta-induced NF-kappaB dependent E-selection promoter activation after 6 hrs by luciferase reporter gene based ELAM assay; type: cell-based
T1 sequence (P04150 whole entry): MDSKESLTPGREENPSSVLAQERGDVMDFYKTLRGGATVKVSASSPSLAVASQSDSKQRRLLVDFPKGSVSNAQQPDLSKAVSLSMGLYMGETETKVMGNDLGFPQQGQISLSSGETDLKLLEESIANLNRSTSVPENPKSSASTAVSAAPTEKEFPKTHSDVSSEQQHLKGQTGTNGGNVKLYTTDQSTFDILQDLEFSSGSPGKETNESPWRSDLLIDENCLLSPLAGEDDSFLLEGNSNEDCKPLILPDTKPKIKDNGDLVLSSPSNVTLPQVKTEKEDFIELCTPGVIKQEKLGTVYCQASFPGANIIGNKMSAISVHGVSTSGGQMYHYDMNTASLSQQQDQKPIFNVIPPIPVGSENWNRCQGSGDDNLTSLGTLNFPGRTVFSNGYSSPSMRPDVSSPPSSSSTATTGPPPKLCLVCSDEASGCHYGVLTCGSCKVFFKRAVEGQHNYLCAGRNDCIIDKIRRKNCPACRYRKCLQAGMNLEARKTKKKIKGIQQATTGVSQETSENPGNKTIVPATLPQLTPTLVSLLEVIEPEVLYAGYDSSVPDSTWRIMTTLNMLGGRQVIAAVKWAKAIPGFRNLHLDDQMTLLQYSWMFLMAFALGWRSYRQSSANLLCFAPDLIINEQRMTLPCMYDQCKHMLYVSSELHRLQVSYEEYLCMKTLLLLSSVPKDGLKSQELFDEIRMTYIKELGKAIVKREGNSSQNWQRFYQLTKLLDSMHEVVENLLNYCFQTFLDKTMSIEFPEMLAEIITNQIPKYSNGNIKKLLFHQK

Glucocorticoid receptor [2] = biological target: T1, Glucocorticoid receptor; test: Transactivation of GAL-4 tagged glucocorticoid receptor ligand binding domain expressed in human HeLa cells assessed as NP1 activation by luciferase reporter gene assay; type: cell-based
Glucocorticoid receptor [3] = biological target: T1, Glucocorticoid receptor; test: Transrepression activity at glucocorticoid receptor expressed in human A549 cells assessed as inhibition of PMA-induced AP1 activity after 6 hrs by luciferase reporter gene assay; type: cell-based
Glucocorticoid receptor [4] = biological target: T1, Glucocorticoid receptor; test: Displacement of GS-red from human glucocorticoid receptor by fluorescent polarization assay
Androgen receptor = biological target: T2, Androgen receptor (Homo sapiens, UniProt P10275); test: Binding affinity to androgen receptor
T2 sequence (P10275 whole entry): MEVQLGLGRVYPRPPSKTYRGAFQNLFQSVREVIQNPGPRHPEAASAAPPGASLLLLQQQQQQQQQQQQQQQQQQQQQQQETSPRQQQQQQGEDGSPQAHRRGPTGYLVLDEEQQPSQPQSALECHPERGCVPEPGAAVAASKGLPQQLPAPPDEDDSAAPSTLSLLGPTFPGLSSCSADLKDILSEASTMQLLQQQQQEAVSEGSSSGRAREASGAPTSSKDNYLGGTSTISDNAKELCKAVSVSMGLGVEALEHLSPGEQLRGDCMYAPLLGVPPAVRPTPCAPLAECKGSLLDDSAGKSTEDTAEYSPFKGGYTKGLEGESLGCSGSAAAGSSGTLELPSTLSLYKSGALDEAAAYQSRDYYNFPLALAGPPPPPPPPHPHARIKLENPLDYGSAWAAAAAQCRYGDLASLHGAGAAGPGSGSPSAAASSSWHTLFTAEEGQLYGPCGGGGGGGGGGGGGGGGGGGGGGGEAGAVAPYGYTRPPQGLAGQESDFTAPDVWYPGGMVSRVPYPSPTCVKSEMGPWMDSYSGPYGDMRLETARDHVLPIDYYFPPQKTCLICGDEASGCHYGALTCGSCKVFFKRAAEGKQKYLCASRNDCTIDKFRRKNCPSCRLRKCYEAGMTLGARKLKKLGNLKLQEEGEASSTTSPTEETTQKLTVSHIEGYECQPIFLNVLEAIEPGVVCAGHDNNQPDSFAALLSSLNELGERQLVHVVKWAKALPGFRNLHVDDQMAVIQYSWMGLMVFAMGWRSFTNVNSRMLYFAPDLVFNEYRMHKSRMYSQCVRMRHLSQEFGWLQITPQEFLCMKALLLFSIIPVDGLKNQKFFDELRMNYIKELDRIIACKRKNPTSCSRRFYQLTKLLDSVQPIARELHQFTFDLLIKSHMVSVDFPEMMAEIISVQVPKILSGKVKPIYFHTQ

Progesterone receptor = biological target: T3, Progesterone receptor (Homo sapiens, UniProt P06401); test: Binding affinity to progesterone receptor
T3 sequence (P06401 whole entry): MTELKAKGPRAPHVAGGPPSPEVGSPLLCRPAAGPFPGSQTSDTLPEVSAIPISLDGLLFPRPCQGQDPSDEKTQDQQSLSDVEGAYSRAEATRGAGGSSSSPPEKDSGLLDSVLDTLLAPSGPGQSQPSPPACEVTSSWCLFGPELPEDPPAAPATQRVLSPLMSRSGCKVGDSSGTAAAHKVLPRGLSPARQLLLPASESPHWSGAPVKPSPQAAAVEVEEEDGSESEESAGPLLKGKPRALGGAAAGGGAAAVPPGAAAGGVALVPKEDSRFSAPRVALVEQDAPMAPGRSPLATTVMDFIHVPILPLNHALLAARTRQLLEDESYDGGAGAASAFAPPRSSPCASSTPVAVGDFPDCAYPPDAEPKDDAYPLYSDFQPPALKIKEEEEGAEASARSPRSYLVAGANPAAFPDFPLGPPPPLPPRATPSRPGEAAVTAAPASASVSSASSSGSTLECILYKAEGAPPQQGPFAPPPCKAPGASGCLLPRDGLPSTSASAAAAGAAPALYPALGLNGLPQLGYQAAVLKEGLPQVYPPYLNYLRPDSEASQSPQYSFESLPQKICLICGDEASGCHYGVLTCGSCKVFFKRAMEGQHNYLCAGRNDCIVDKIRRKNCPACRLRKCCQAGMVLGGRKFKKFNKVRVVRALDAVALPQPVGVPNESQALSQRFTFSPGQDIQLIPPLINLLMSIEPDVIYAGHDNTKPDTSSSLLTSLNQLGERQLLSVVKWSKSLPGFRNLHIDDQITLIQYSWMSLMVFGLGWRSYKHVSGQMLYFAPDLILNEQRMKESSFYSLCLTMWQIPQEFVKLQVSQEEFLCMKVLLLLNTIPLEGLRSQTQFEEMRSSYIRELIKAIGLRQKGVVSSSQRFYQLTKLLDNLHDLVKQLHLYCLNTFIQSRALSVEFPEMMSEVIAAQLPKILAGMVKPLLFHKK

| SMILES | pEC50 (Glucocorticoid receptor [1]) | pEC50 (Glucocorticoid receptor [2]) | pEC50 (Glucocorticoid receptor [3]) | pKi (Glucocorticoid receptor [4]) | pIC50 (Androgen receptor) | pKi (Progesterone receptor) | pEC50 (Glucocorticoid receptor [1]; a549) | pEC50 (Glucocorticoid receptor [3]; a549) |
| --- | --- | --- | --- | --- | --- | --- | --- | --- |
| CCCC[C@@](C)(O)[C@H]1CCCC2=Cc3c(-c4ccc(F)cc4)ncn3C[C@@]21C | 6.89 | 5.95 | 7.47 | 8.10 | < 5.40 |  |  |  |
| C[C@]12Cn3cnc(-c4ccc(F)cc4)c3C=C1CCC[C@@H]2[C@](C)(O)CCc1ccccc1 |  |  |  |  | < 5.40 |  |  |  |
| C[C@]12Cn3cnc(-c4ccc(F)cc4)c3C=C1CCC[C@@H]2[C@](C)(O)c1ccc(C#N)cc1 | 6.98 | < 5.00 | 7.23 | 8.60 | < 5.40 |  |  |  |
| C[C@]12Cc3cnn(-c4ccc(F)cc4)c3C=C1CCCC2[C@@H](O)c1csc2ccccc12 (stereo not given in full) |  |  | 8.74 | 8.74 |  |  |  |  |
| C[C@]12Cc3cnn(-c4ccc(F)cc4)c3C=C1CCC[C@@H]2[C@](C)(O)c1ccc(F)cc1 |  |  |  | 8.60 | < 5.40 |  |  |  |
| C=CC[C@H](O)C1CCCC2=Cc3c(cnn3-c3ccc(F)cc3)C[C@@]21C (stereo not given in full) |  |  | 8.03 | 8.41 | < 5.40 |  |  |  |
| CO[C@](C)(c1cccs1)[C@H]1CCCC2=Cc3c(-c4ccc(F)cc4)ncn3C[C@@]21C | < 5.30 |  | < 5.30 | 7.48 | < 5.40 |  |  |  |
| C[C@]12Cn3cnc(-c4ccc(F)cc4)c3C=C1CCC[C@@H]2[C@](C)(O)c1ccccc1 | 7.21 | < 5.30 | 7.80 | 9.00 | < 5.40 |  |  |  |
| C[C@]12Cn3cnc(-c4ccc(F)cc4)c3C=C1CCC[C@@H]2[C@](C)(O)c1cccs1 | 7.39 |  | 7.28 | 8.70 | < 5.40 | 6.64 |  |  |
| C=CC[C@@](C)(O)[C@H]1CCCC2=Cc3c(-c4ccc(F)cc4)ncn3C[C@@]21C | 7.10 | < 5.30 | 7.24 | 8.37 | < 5.40 | 5.74 |  |  |
| CC(C)C[C@@](C)(O)[C@H]1CCCC2=Cc3c(-c4ccc(F)cc4)ncn3C[C@@]21C | 6.88 | 6.06 | 6.88 | 8.05 | < 5.40 |  |  |  |
| C[C@]12Cn3cnc(-c4ccc(F)cc4)c3C=C1CCC[C@@H]2[C@](C)(O)Cc1ccc(F)cc1 | 6.92 | 6.12 | 6.64 | 7.96 | < 5.40 |  |  |  |
| Cc1cccc([C@@](C)(O)[C@H]2CCCC3=Cc4c(-c5ccc(F)cc5)ncn4C[C@@]32C)c1 | 7.00 | 5.95 | 8.02 | 8.60 | < 5.40 |  |  |  |
| C[C@]12Cn3cnc(-c4ccc(F)cc4)c3C=C1CCC[C@@H]2[C@](C)(O)C1CCOCC1 |  |  |  |  | < 5.40 |  |  |  |
| C=CCC(O)C1CCCC2=Cc3c(-c4ccc(F)cc4)ncn3CC21C (single isomer, unassigned; diastereomer 2) |  |  |  | 8.05 |  |  | < 5.30 | < 5.60 |
| C[C@]12Cn3cnc(-c4ccc(F)cc4)c3C=C1CCC[C@@H]2[C@](C)(O)c1ccsc1 | 7.43 | < 5.00 | 8.30 | 9.00 | < 5.40 |  |  |  |

| SMILES | pEC50 (Glucocorticoid receptor [1]) | pEC50 (Glucocorticoid receptor [2]) | pEC50 (Glucocorticoid receptor [3]) | pKi (Glucocorticoid receptor [4]) | pIC50 (Androgen receptor) | pKi (Progesterone receptor) | pEC50 (Glucocorticoid receptor [1]; a549) | pEC50 (Glucocorticoid receptor [3]; a549) |
| --- | --- | --- | --- | --- | --- | --- | --- | --- |
| C[C@]12Cn3cnc(-c4ccc(F)cc4)c3C=C1CCC[C@@H]2[C@](C)(O)C(F)(F)F |  | < 5.00 | 7.51 | 8.28 | < 5.40 |  |  |  |
| C[C@]12Cn3cnc(-c4ccc(F)cc4)c3C=C1CCC[C@@H]2[C@](C)(O)c1cccc(C#N)c1 | 7.51 | < 5.00 | 7.74 | 9.00 | < 5.40 |  |  |  |
| C[C@]12Cn3cnc(-c4ccc(F)cc4)c3C=C1CCC[C@@H]2[C@](C)(O)c1ccncc1 |  |  |  |  | < 5.40 |  |  |  |
| C[C@]12Cn3cnc(-c4ccc(F)cc4)c3C=C1CCC[C@@H]2[C@](C)(O)c1nccs1 | 7.04 | 6.24 | 6.96 | 8.52 | < 5.40 |  |  |  |
| C[C@]12Cn3cnc(-c4ccc(F)cc4)c3C=C1CCC[C@@H]2[C@](C)(O)c1ccc(F)cc1 | 7.36 |  | 7.70 | 8.70 | < 5.40 |  |  |  |
| C[C@]12Cc3cnn(-c4ccc(F)cc4)c3C=C1CCC[C@@H]2[C@](C)(O)c1ccsc1 |  |  |  | 9.10 | < 5.40 |  |  |  |
| C[C@]12Cn3cnc(-c4ccc(F)cc4)c3C=C1CCC[C@@H]2[C@H](O)c1ccc(F)cc1 (stereo in doubt; 18) | < 5.30 |  | < 5.30 | 7.60 |  |  |  |  |
| C[C@]12Cn3cnc(-c4ccc(F)cc4)c3C=C1CCC[C@@H]2[C@](C)(O)c1ccccn1 |  |  |  |  | < 5.40 |  |  |  |
| C[C@]12Cn3cnc(-c4ccc(F)cc4)c3C=C1CCC[C@@H]2[C@H](O)c1ccc(F)cc1 (stereo in doubt; 19) | 6.61 |  | 6.57 | 7.68 |  | 6.35 |  |  |
| Cc1ccc([C@@](C)(O)[C@H]2CCCC3=Cc4c(-c5ccc(F)cc5)ncn4C[C@@]32C)s1 | 7.74 | 6.57 | 7.55 | 8.82 | < 5.40 |  |  |  |
| C=CCC(O)C1CCCC2=Cc3c(-c4ccc(F)cc4)ncn3CC21C (single isomer, unassigned; diastereomer 1) | < 5.30 |  | < 5.60 | 8.10 |  |  |  |  |
| C[C@]12Cn3cnc(-c4ccc(F)cc4)c3C=C1CCC[C@@H]2[C@](C)(O)c1cccnc1 |  |  |  |  | < 5.40 |  |  |  |
| C[C@]12Cn3cnc(-c4ccc(F)cc4)c3C=C1CCC[C@@H]2[C@](C)(O)C1CCCCC1 | 7.48 | 6.33 | 8.70 | 8.51 | < 5.40 |  |  |  |
| Cc1ccccc1[C@@](C)(O)[C@H]1CCCC2=Cc3c(-c4ccc(F)cc4)ncn3C[C@@]21C | 7.51 | 6.04 | 7.60 | 8.70 | < 5.40 |  |  |  |
| C[C@]12Cn3cnc(-c4ccc(F)cc4)c3C=C1CCC[C@@H]2[C@](C)(O)C1CC1 | 7.31 | < 5.30 | 7.43 | 8.59 | < 5.40 |  |  |  |
